# Reference: US20200131142A1, “FARNESOID X RECEPTOR AGONISTS AND USES THEREOF” (Metacrine, Inc., priority 2017, published 2020)
# Target: T1, hFXR (Homo sapiens, UniProt Q96RI1)
# T1 construct: expressed in transfected cells; host or cells: CV-1 cells
# T1 sequence (Q96RI1 1-486): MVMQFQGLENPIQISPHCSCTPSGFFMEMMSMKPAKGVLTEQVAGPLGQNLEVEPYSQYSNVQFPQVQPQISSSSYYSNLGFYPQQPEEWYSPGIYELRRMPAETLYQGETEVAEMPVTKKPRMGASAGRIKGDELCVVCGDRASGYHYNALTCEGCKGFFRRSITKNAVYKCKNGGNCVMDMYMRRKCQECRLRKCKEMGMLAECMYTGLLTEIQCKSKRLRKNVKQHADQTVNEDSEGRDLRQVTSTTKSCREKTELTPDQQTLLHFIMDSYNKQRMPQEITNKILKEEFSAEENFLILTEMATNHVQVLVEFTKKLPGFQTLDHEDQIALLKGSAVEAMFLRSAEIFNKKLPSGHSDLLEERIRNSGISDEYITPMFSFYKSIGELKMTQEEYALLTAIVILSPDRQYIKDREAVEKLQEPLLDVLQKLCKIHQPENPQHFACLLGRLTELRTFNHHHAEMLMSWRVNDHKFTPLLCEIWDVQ
# T1 sequence (P19793 1-462 partner): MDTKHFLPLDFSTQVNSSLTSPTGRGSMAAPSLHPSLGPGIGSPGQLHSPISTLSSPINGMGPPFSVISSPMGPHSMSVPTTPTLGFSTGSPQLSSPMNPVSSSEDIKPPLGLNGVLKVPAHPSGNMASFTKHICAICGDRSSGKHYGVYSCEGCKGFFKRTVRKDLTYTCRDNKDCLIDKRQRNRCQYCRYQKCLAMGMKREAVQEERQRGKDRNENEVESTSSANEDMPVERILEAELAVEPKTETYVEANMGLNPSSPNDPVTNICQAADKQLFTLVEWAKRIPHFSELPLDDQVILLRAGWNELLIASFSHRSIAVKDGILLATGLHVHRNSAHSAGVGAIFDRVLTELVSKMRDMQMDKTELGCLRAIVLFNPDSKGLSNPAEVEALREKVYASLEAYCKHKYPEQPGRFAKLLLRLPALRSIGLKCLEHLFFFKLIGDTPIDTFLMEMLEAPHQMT
# Assay: In Vitro FXR Assay (TK): hFXR/hRXR TK-ECRE-luc reporter in transfected CV-1 cells
# Type: cell-based
# Conditions: 18 hrs incubation, luminescence, compounds with maximum efficacy <25% of the Fexarmine control classified as '+'
# Protocol: Example B-1: In Vitro FXR Assay (TK)
# CV-1 cells were seeded at a density of 2,000,000 cells in a T175 flask with DMEM+10% charcoal double-stripped FBS and incubated at 37° C. in 5% CO2 for 18 h (O/N).
# After 18 h of incubation, the medium in the T175 flask was changed with fresh DMEM+10% charcoal super-stripped serum. In a polypropylene tube, 2500 μL OptiMEM (Life Technologies, Cat #31985-062) was combined with expression plasmids for hFXR, hRXR, TK-ECRE-luc and pCMX-YFP. The tube was then briefly vortexed and incubated at room temperature for 5 minutes. Transfection reagent (X-tremeGENE HP from Roche, Cat #06 366 236 001) was added to the OptiMEM/plasmid mixture vortexed and incubated at room temperature for 20 minutes. Following incubation, the transfection reagent/DNA mixture complex was added to cells in the T175 flask and the cells were incubated at 37° C. in 5% CO2 for 18 h (O/N).
# Compounds were serially diluted in DMSO and added to transfected CV-1 cells. The cells were then incubated for 18 hrs. The next day cells were lysed and examined for luminescence.
row,EC50 [nM],SMILES
1,≤ 250,"COc1ccc([C@H]2CC[C@H](CN(c3cccc(-c4cnc(C5CC5)s4)c3)C(=O)[C@H]3CC[C@H](O)CC3)CC2)cc1S(C)(=O)=O [Compound 9.26, trans-N-(3-(2-Cyclopropylthiazol-5-yl)phenyl)-4-hydroxy-N-((trans-4-(4-methoxy-3-(methylsulfonyl)phenyl)cyclohexyl)methyl) cyclohexanecarboxamide]"
2,≥ 1000,"COc1ncc(-c2cccc(N(C[C@H]3CC[C@H](c4ccc(OC)c(C)c4)CC3)C(=O)[C@H]3CC[C@H](N)CC3)c2)s1 [Compound 13.01, trans-4-Amino-N-((trans-4-(4-methoxy-3-methylphenyl)cyclohexyl)methyl)-N-(3-(2-methoxythiazol-5-yl)phenyl)cyclohexanecarboxamide]"
3,250 to 1000,"COc1ccc([C@H]2CC[C@H](CN(c3cccc(-c4cnc(C(N)=O)s4)c3)C(=O)[C@H]3CC[C@H](O)CC3)CC2)cc1C [Compound 7.25, 5-(3-(trans-4-Hydroxy-N-((trans-4-(4-methoxy-3-methylphenyl)cyclohexyl)methyl)cyclohexanecarboxamido)phenyl)thiazole-2-carboxamide]"
4,≤ 250,"Cn1ncc2cc([C@H]3CC[C@H](CN(c4cccc(-c5cnc(C6CC6)s5)c4)C(=O)[C@H]4CC[C@H](O)CC4)CC3)ccc21 [Compound 9.16, trans-N-(3-(2-Cyclopropylthiaol-5-yl)phenyl)-4-hydroxy-N-((trans-4-(1-methyl-1H-indazol-5-yl)cyclohexyl)methyl)cyclohexanecarboxamide]"
5,≤ 250,"COc1ccc(C23CCC(CN(c4cc(-c5cnc(C6CC6)s5)ccn4)C(=O)[C@H]4CC[C@H](O)CC4)(CC2)CC3)cc1C [Compound 6.05, trans-N-(4-(2-Cyclopropylthiazol-5-yl)pyridin-2-yl)-4-hydroxy-N-((4-(4-methoxy-3-methylphenyl)bicyclo[2.2.2]octan-1-yl)methyl)cyclohexanecarboxamide]"
6,≤ 250,"COc1ncc(-c2cccc(N(C[C@H]3CC[C@H](c4ccc(OC)c(C#N)c4)CC3)C(=O)[C@H]3CC[C@H](O)CC3)c2)s1 [Compound 9.06, trans-N-((trans-4-(3-Cyano-4-methoxyphenyl)cyclohexyl)methyl)-4-hydroxy-N-(3-(2-methoxythiazol-5-yl)phenyl)cyclohexanecarboxamide]"
7,≤ 250,"COc1ccc([C@H]2CC[C@H](CN(c3cccc(-c4cnc(SC)s4)c3)C(=O)[C@H]3CC[C@H](O)CC3)CC2)cc1C [Compound 7.11, trans-4-Hydroxy-N-((trans-4-(4-methoxy-3-methylphenyl)cyclohexyl)methyl)-N-(3-(2-(methylthio)thiazol-5-yl)phenyl)cyclohexanecarboxamide]"
8,≤ 250,"COc1ccc([C@H]2CC[C@H](CN(c3cccc(C#Cc4nc(C)cs4)c3)C(=O)[C@H]3CC[C@H](O)CC3)CC2)cc1C [Compound 8.03, trans-4-Hydroxy-N-((trans-4-(4-methoxy-3-methylphenyl)cyclohexyl)methyl)-N-(3-((4-methylthiazol-2-yl)ethynyl)phenyl)cyclohexanecarboxamide]"
9,≤ 250,"COc1ccc([C@H]2CC[C@H](CN(c3cccc(OCc4nccs4)c3)C(=O)[C@H]3CC[C@H](O)CC3)CC2)cc1C [Compound 16, trans-4-Hydroxy-N-((trans-4-(4-methoxy-3-methylphenyl)cyclohexyl)methyl)-N-(3-(thiazol-2-ylmethoxy)phenyl)cyclohexanecarboxamide]"
10,≤ 250,"CCn1cc([C@H]2CC[C@H](CN(c3cccc(-c4cnc(C5CC5)s4)c3)C(=O)[C@H]3CC[C@H](O)CC3)CC2)cn1 [Compound 9.18, trans-N-(3-(2-Cyclopropylthiazol-5-yl)phenyl)-N-((trans-4-(1-ethyl-1H-pyrazol-4-yl)cyclohexyl)methyl)-4-hydroxycyclohexanecarboxamide]"
11,250 to 1000,"COc1ccc([C@H]2CC[C@H](CN(c3cccc(NCc4nccs4)c3)C(=O)[C@H]3CC[C@H](O)CC3)CC2)cc1C [Compound 15, trans-4-Hydroxy-N-((trans-4-(4-methoxy-3-methylphenyl)cyclohexyl)methyl)-N-(3-((thiazol-2-ylmethyl)amino)phenyl)cyclohexanecarboxamide]"
12,≤ 250,"O=C([C@H]1CC[C@H](O)CC1)N(C[C@H]1CC[C@H](c2ccc3c(c2)OCO3)CC1)c1cccc(-c2cnc(C3CC3)s2)c1 [Compound 9.25, trans-N-((trans-4-(Benzo[d][1,3]dioxol-5-yl)cyclohexyl)methyl)-N-(3-(2-cyclopropylthiazol-5-yl)phenyl)-4-hydroxycyclohexanecarboxamide]"
13,≤ 250,COc1ccc([C@H]2CC[C@H](CN(c3cccc(-c4cnc(C(C)C)s4)c3)C(=O)[C@H]3CC[C@H](O)CC3)CC2)cc1C [Compound 7.06]
14,≤ 250,"COc1ccc([C@H]2CC[C@H](CN(c3cc(-c4cnc(C5CC5)s4)ccn3)C(=O)[C@H]3CC[C@H](O)CC3)CC2)cc1C [Compound 6.04, trans-N-(4-(2-cyclopropylthiazol-5-yl)pyridin-2-yl)-4-hydroxy-N-((trans-4-(4-methoxy-3-methylphenyl)cyclohexyl)methyl) cyclohexanecarboxamide]"
15,≤ 250,"COc1ccc([C@H]2CC[C@H](CN(c3cccc(-c4cnc(OCCO)s4)c3)C(=O)[C@H]3CC[C@H](O)CC3)CC2)cc1C [Compound 7.18, trans-4-Hydroxy-N-(3-(2-(2-hydroxyethoxy)thiazol-5-yl)phenyl)-N-((trans-4-(4-methoxy-3-methylphenyl)cyclohexyl)methyl) cyclohexanecarboxamide]"
16,≤ 250,"COc1ccc([C@H]2CC[C@H](CN(c3cccc(-c4cnc(C5CC5)s4)c3)C(=O)[C@H]3CC[C@H](O)CC3)CC2)nc1C [Compound 9.19, trans-N-(3-(2-Cyclopropylthiazol-5-yl)phenyl)-4-hydroxy-N-((trans-4-(5-methoxy-6-methylpyridin-2-yl)cyclohexyl)methyl)cyclohexanecarboxamide]"
17,≤ 250,"COc1ccc([C@H]2CC[C@H](CN(c3cccc(CCc4nccs4)c3)C(=O)[C@H]3CC[C@H](O)CC3)CC2)cc1C [Compound 6.07, trans-4-Hydroxy-N-((trans-4-(4-methoxy-3-methylphenyl)cyclohexyl)methyl)-N-(3-(2-(thiazol-2-yl)ethyl)phenyl)cyclohexanecarboxamide]"
18,≤ 250,"Cn1nc(F)c2cc([C@H]3CC[C@H](CN(c4cccc(-c5cnc(C6CC6)s5)c4)C(=O)[C@H]4CC[C@H](O)CC4)CC3)ccc21 [Compound 9, trans-N-(3-(2-Cyclopropylthiazol-5-yl)phenyl)-N-((trans-4-(3-fluoro-1-methyl-1H-indazol-5-yl)cyclohexyl)methyl)-4-hydroxycyclohexanecarboxamide]"
19,≤ 250,"COc1ccc([C@H]2CC[C@H](CN(c3cccc(-c4cnc(C(F)F)s4)c3)C(=O)[C@H]3CC[C@H](O)CC3)CC2)cc1C [Compound 7.22, trans-N-(3-(2-(Difluoromethyl)thiazol-5-yl)phenyl)-4-hydroxy-N-((trans-4-(4-methoxy-3-methylphenyl)cyclohexyl)methyl) cyclohexanecarboxamide]"
20,≤ 250,"COc1ccc([C@H]2CC[C@H](CN(c3cccc(/C=C/c4nccs4)c3)C(=O)[C@H]3CC[C@H](O)CC3)CC2)cc1C [Compound 6.06, trasn-4-Hydroxy-N-((trans-4-(4-methoxy-3-methylphenyl)cyclohexyl)methyl)-N-(3-((E)-2-(thiazol-2-yl)vinyl)phenyl)cyclohexanecarboxamide]"
21,≥ 1000,"COc1ccc([C@H]2CC[C@H](CN(c3cccc(-c4ncc(C)s4)c3)C(=O)[C@H]3CC[C@H](O)CC3)CC2)cc1C [Compound 7.03, trans-4-Hydroxy-N-((trans-4-(4-methoxy-3-metthylphenyl)cyclohexyl)methyl)-N-(3-(5-methylthiazol-2-yl)phenyl)cyclohexanecarboxamide]"
